Broadly, the EC50 is the concentration at which the effect is half-maximal. Broadly, the CLint scaled is the capacity of the preparation to metabolise the compound, expressed as a volume cleared per time.

One data set has as its system EV-A71 Tainan/4643/98. The experiment in a line: CPE assay, EV-A71 Tainan in RD cells. In kind it is cell-based. As to conditions: Enterovirus A, EVA71; EV-A71 Tainan, RD cells; read-out: EC50.
A further data set deals with EV-A71 US/AK/16-19516. Briefly: CPE assay, EV-A71 US/AK in RD cells. In kind it is cell-based. The conditions noted are these: Enterovirus A, EVA71.
A further data set concerns CVB3. The experiment in a line: CPE assay, CVB3 in Vero C1008 cells. The format is cell-based, coxsackievirus B3 (CVB3). As to conditions: Enterovirus B; CVB3, Vero C1008 cells; read-out: EC50.
The nature of data set [1]: Mouse microsomal stability. In kind it is in vitro ADME. As to conditions: mouse liver microsomes. The method, then:
Test compounds were incubated at 37° C. with liver microsomes (mouse or human) (Xenotech) at 1 μM drug concentration in the presence of a NADPH regenerating system at 0.5 mg/ml microsomal protein. Testosterone (3A4 substrate), Propafenone (2D6), and Diclofenac (2C9) were included as positive controls. Compounds were incubated with microsomes in the presence of a NADPH regenerating system (Sigma, Cat. No. N0505, Lot SLBH3107V). Aliquots at 0, 5, 10, 20, 30 and 60 minutes post incubation were collected and immediately mixed with cold acetonitrile containing internal standard (IS). Compounds incubated with microsomes without NADPH regenerating system for 60 minutes were also included. All the samples were analyzed by LC/MS/MS; disappearance of test compound were assessed based on peak area ratios of analyte/IS. Following equations were applied to calculate the microsome clearance: […]

Another data set relates to EV-D68 US/MO/14-18947. The experiment in a line: CPE assay, EV-D68 US/MO/14-18947 in RD cells. As to conditions: EV-D68 US/MO/14-18947, RD cells.
Data set [2] has as its system EV-D68 US/KY/14-18953 virus. Briefly: CPE assay, EV-D68 US/KY/14-18953 in RD cells. In kind it is cell-based, Enterovirus D68 (EV-D68). As to conditions: EV-D68 US/KY/14-18953, RD cells.
The subject of the next data set is A549. Briefly: Cytotoxicity in A549 cells.
Another data set deals with HeLa. The experiment in a line: Cytotoxicity in HeLa cells.
In data set [3] the test system is RD cells. The experiment in a line: Cytotoxicity, neutral red method, RD cells. As to conditions: RD cells, neutral red method.
A further data set concerns EV-D68 US/MO/14-18949. The experiment in a line: CPE assay, EV-D68 US/MO/14-18949 in RD cells. As to conditions: EV-D68 US/MO/14-18949, RD cells.
Another data set has as its system EV-D68 US/IL/14-18956. Briefly: CPE assay, EV-D68 US/IL/14-18956 in RD cells. As to conditions: EV-D68 US/IL/14-18956, RD cells.
For a further data set, the system named is EV-D68 UA/IL/14-18952. The experiment in a line: CPE assay, EV-D68 UA/IL/14-18952 in RD cells. The conditions noted are these: EV-D68 UA/IL/14-18952, RD cells.
Data set [4] in a line: in vitro. The conditions noted are these: human.
A short description of data set [5]: in vitro. The conditions noted are these: African green monkey.
For data set [6], the system named is RD cells. The conditions noted are these: human, 3 days.

Where two headings read alike, the source gives them in different places. Some results are limits rather than exact numbers.

Experimental for A549: (§1) The cytotoxicity of each compound was determined using the neutral red cell viability assay. The assay was performed under similar conditions (incubation temperature, time, and media) as the CPE, but excluded viral infection. Data acquisition and analysis (CC50) was performed similarly to the antiviral CPE assay, and all values are from triplicate experiments.
Experimental for HeLa: as §1

With `CN(C)CCNC(=O)c1cc(-c2ccccc2)nc2ccccc12` [drawing 181], the EC50 with EV-A71 Tainan/4643/98 is 4.2 µM; with EV-A71 US/AK/16-19516 it was greater than 10 µM; in the data set with CVB3, 0.3 µM; in the data set on EV-D68 US/MO/14-18947 it was 0.2 µM. The half-life at 1 μM in data set [1] (1 μM, NADPH, read-out: Mouse microsomal stability T1/2) is 22.4 min. In addition, the CLint scaled at 1 μM in data set [1] (scaled to liver) worked out at 246 mL/min/kg.

Regarding `O=C(NCCN1CCCC1)c1cc(-c2cccs2)nc2ccccc12` [drawing 130], the “SI = selectivity index (CC50/EC50)” value in data set [2] turned out to be 666.7. In addition, the figures for the CC50 in the data set on A549, with HeLa and in the data set with RD cells [3] were 83.2 µM, 41.7 µM and 40 µM, respectively. In addition, the “SI (CC50/EC50)” value with EV-D68 US/MO/14-18947 amounted to 666.7; in the data set on EV-D68 US/MO/14-18949 it was 800; in the data set with EV-D68 US/IL/14-18956, 800; in the data set on EV-D68 UA/IL/14-18952 it was 571.4. In the data set on EV-D68 US/MO/14-18947 (Enterovirus D, EVD68, RD), the EC50 amounted to 0.06 µM.

`O=C(NC1C2CNCC21)c1cc(-c2cccs2)nc2ccccc12` (stereo not shown) [Compound 6bk, N-{3-azabicyclo[3.1.0]hexan-6-yl}b-2-(thiophen-2-yl)quinoline-4-carboxamide]: the “SI = selectivity index (CC50/EC50)” value in [2] is reported as “SI50 = 5.4”. In addition, the EC50 in data set [2] (Enterovirus D, EVD68, RD, CPE assay, read-out: EC50) was 6.4 µM. In “in vitro [4]”, the CC50 at 3 days turned out to be 34.5 µM.

As for `Cc1ccc2c(c1)c1c3n2CCNC3CCC1` (stereo not shown) [drawing 197], the EC50 in the data set on EV-A71 Tainan/4643/98 is greater than 20 µM. Further, the CC50 at 3 days was 19 µM in “in vitro [4]” and 40.5 µM in the data set “in vitro [5]”.

On to `O=C(NC1CN2CCC1CC2)c1cc(-c2ccccc2)nc2ccccc12` (stereo not shown) [Compound 10c, N-{1-azabicyclo[2.2.2]octan-3-yl}-2-phenylquinoline-4-carboxamide], for which, in the data set with RD cells [6], the CC50 worked out at 46.5 ± 14.7 µM.

These data come from patent publication US20210244721A1, “SMALL MOLECULE ENTEROVIRUS INHIBITORS AND USES THEREOF” (priority 2020, published 2021).
